# From PubChem BioAssay AID2305 (GlaxoSmithKline (GSK), 2010)
# Tested on: P. falciparum 3D7 growth, pLDH absorbance
# Assay: blood-stage malaria parasite growth potency – strain 3D7, dose response (AID 2305)
row,SMILES,IC50 [nM]
1,COc1ccc(NCc2cccc(-c3cccc(CNCCc4ccccc4)c3)c2)cc1,1050
2,CCC(C)c1cccc(C(C)CC)c1OCCCON1C(N)=NC(N)=NC1(C)C (configuration not stated),20
3,CN(C)CCN(C)Cc1ccc(-c2ccc(NS(=O)(=O)c3cccc4cccnc34)cc2)cc1,860
4,COc1ccc(-c2cc(Nc3nc(-c4cccc(Cl)c4)nc4ccccc34)ccn2)cc1,730
5,NC(=O)c1cccc(C(=O)Nc2cccc(-c3cccc(-c4nc5ccc(C(F)(F)F)cc5[nH]4)c3)c2)c1,130
6,CN(C)CCCn1cncc1-c1ccc2ncnc(Nc3ccc(OCc4ccccc4)cc3)c2c1,520
7,Cc1ccc(-c2cc(C(=O)Nc3ccc(S(=O)(=O)N4CC(C)OC(C)C4)cc3)[nH]n2)c(O)c1 (configuration not stated),610
8,Cc1ccnc(Nc2nc(-c3ccccn3)cs2)c1,1000
9,Cc1[nH]nc2ccc(-c3cc(OC[C@@H](N)Cc4ccccc4)cnc3-c3ccccc3OCc3cccc(F)c3)cc12,1220
10,N#Cc1cccc(NC(=O)Nc2ccc3c(c2)CCN(C2CCC2)CC3)c1,840
11,Cc1ccc(F)c(OCC2CCCN(c3ccc(C(=O)NC4CC4)cn3)C2)c1 (configuration not stated),770
12,O=C(Nc1ccc([N+](=O)[O-])cc1Cl)c1cc(Br)cc(Cc2ccccc2)c1O,1290
13,COc1ccc2ccccc2c1C=NNc1cc(C)nc2c(C)cccc12,820
14,CON(CCCN(C)C)C(=N)N,1080
15,Cc1ccc(-c2cc(C(=O)Nc3ccc(S(=O)(=O)N4CCCCC4)cc3)[nH]n2)c(O)c1,1770
16,O=C(N[C@@H](Cc1ccccc1)C(=O)NC1CCCCC1)c1ccc(O)c(-c2cccc(C(F)(F)F)c2)c1,810
17,C[C@@H]1CN(CCCn2c3ccccc3c3ccc(C(=O)CCCN(C)C)cc32)C[C@H](C)N1,810
18,Oc1c(Cl)cc(-c2ccccc2)cc1CNC1CCCCC1,750
19,COc1ccc(CCN(C)CCCN2CCC(NC(=O)c3cccc4c(=O)c5ccccc5sc34)CC2)cc1OC,790
20,CCNc1cc(C)nc(Nc2ccc(NS(=O)(=O)c3cc(OC)ccc3OC)cc2)n1,850
21,C[C@H](Cc1ccc(OCCCCCCOc2ccc(C[C@@H](C)NC(=O)[C@H](O)c3cccc(Cl)c3)cc2)cc1)NC[C@H](O)c1cccc(Cl)c1,380
22,COc1ccc(Cl)cc1N1CCN(CCCNC(=O)c2ccc(-c3nc4cc(Cl)c(F)cc4[nH]3)cc2)CC1,1060
23,Oc1ccc(CCNc2nc(NCCCOc3ccccc3-c3cccc(C(F)(F)F)c3)nc(N3CCNCC3)n2)cc1,880
24,CCOc1ccccc1NC(=O)Nc1ccc2c(c1)CCN(C1CCC1)CC2,1110

row,SMILES,IC50 [nM]
1,Cc1cccc(CNc2nc(C)cc(N[C@@H](CC(C)C)C(=O)NCCOc3ccccc3)n2)c1,1080
2,CC(C)(C)c1ccc(CN(C[C@@H](O)CNS(=O)(=O)c2cc(Cl)cc(Cl)c2)C(C)(C)C)cc1,930
3,CC(C)Cc1cn(-c2nc(-c3nc4ccccc4[nH]3)cs2)c2ccncc12,90
4,CO/C(=C\C=C\c1cc2cc(Cl)c(Cl)cc2[nH]1)C(=O)NCCCN1CCN(C2CCCCC2)CC1,1010
5,CCCCCCNC(=O)C(N)CCCC(N)C(=O)NCCCCCC (configuration not stated),160
6,Cc1c(C)c2c(c(C)c1O)CC[C@@](C)(C(=O)N1CCC(CN3CCC(c4c[nH]c5ccccc45)CC3)CC1)O2,660
7,CCc1nc(N)nc(N)c1-c1ccc(F)c(F)c1,420
8,Cc1cccc(Nc2nc(NCCCCN)nc3cc[nH]c(=O)c23)c1,730
9,COC(=O)C(C)(C)Cc1c(SC(C)(C)C)c2cc(C(C)C)ccc2n1Cc1ccc(Cl)cc1,850
10,N#Cc1cnc(Nc2ccc(Oc3ccccc3)cc2)nc1Nc1cccc(S(N)(=O)=O)c1,550
11,CCn1c(-c2nonc2N)nc2c(-c3cccc(NC(=O)Nc4cccc(C#N)c4)c3)ncc(OCCCN)c21,670
12,O=C(Nc1ccccc1)Nc1cccc(-c2cccc(-c3nc4ccc(F)cc4[nH]3)c2)c1,180
13,O=C(Nc1cccc(CN2CCCN(Cc3ccc(O)cc3)CC2)c1)c1cc2ccccc2o1,1200
14,O=c1cc(NCCCNCc2cc(Br)ccc2F)[nH]c2ccccc12,850
15,CCOC(=O)c1cn(CC)c2cc(OCc3ccccc3)ccc2c1=O,950
16,O=C(CN1CCN(S(=O)(=O)C=Cc2ccccc2)CC1)Nc1cc(C(F)(F)F)ccc1Cl,780
17,C=C(NC(=O)C1CCCCC1)C(=O)OC,850
18,CN1CCN(c2ccnc3ccc(NC(=O)Cc4ccc5ccccc5c4)cc23)CC1,760
19,CC(C)(C)CC(=O)Nc1ccc(Nc2cc(-c3ccncc3)cc3ncc(C(N)=O)cc23)cc1,700
20,O=C(COC(=O)c1cccc(S(=O)(=O)N2CCc3ccccc32)c1)NNC(=O)c1cccs1,1250
21,CCOC(=O)C(=O)N1c2ccc(OCC)cc2-c2c(ssc2=S)C1(C)C,220
22,O=C(CCn1c2ccccc2c2ccccc21)NN=Cc1ccco1,590
23,CSc1ccc2ccccc2c1CNCCCCCCNCc1c(SC)ccc2ccccc12,800
24,O=C(/C=C/c1ccc(Cl)c(Cl)c1)NCCCCCN1CCC(NC(=O)Nc2ccc(Cl)cc2F)CC1,310

row,SMILES,IC50 [nM]
1,O=C(Nc1cccc(-c2nn3ccccc3c2-c2ccnc(Nc3cccc(C(F)(F)F)c3)n2)c1)c1c(F)cccc1F,630
2,CC(=O)Nc1cc(C(=O)Nc2ccc(C3=NCCN3)cc2)ccc1C(=O)Nc1ccc(C2=NCCN2)cc1,130
3,C[C@@H](CC1CCCCC1)NCc1cccc(NS(=O)(=O)c2ccc(O)c(-c3ccno3)c2)c1,380
4,CCNc1cc(C(=O)N[C@@H](Cc2ccccc2)[C@H](O)CNC2CCCC2)cc(N2CCCC2=O)c1,80
5,CC(C)C[C@@H](C(=O)N[C@H](C(=O)Nc1nccs1)C(C)(C)C)[C@H](CCC(F)(F)F)N(O)C=O,600
6,Cc1ccc(S(C)(=O)=O)cc1/C=C/C(=O)O,870
7,COc1c(I)cc(Cc2cnc(N)nc2N)cc1I,930
8,N/C(=N\c1ncccn1)Nc1cccc(Cc2ccccc2)n1,930
9,CC(C)CNCc1ccc(-c2ccccc2CNC2CCN(Cc3ccccc3)CC2)cc1,570
10,O=C(Nc1cccc(-c2ccc(-c3nc4ccc(C(F)(F)F)cc4[nH]3)cc2)c1)c1cnc[nH]1,970
11,O=C(NCCCCN1CCC(c2cccc3ccccc23)CC1)c1ccc(-c2ccc(C(F)(F)F)cn2)cc1,870
12,CC(C)N1CCN(CCCCNc2c3ccccc3nc3ccccc23)CC1,540
13,CC(C)(C)c1ccc(N2C(N)=NC(N)=NC2(C)C)cc1,30
14,CC(C)c1ccc(NC(=O)c2cccc(CN3CCCN(Cc4cccc(C#N)c4)CC3)c2)cc1,950
15,NC(=NCc1ccccc1)Nc1nc(-c2ccc(OCCCn3ccnc3)cc2)cs1,250
16,CC(C)N1CCC(N(Cc2ccc(-c3ccc(C(F)(F)F)cc3)cc2)C(=O)Cn2c(CCc3cccc(F)c3F)cc(=O)c3cn(C)nc32)CC1,1170
17,CCc1ccc(N2C(N)=NC(N)=NC2(C)C)cc1,10
18,OCCNc1nc(Nc2ccc(F)cc2)nc2ccccc12,160
19,Nc1nccc2ccc(-c3ccsc3)cc12,330
20,O=C(NC1CCC(CCN2Cc3ccc(Br)cc3C2)CC1)c1cccc(-c2cccnc2)c1 (configuration not stated),930
21,O=C(Cc1cccnc1)N(Cc1ccc(-c2ccc(CNCc3cccnc3)cn2)cc1)C1CCN(Cc2ccccc2)CC1,800
22,O=C(/C=C/c1ccc(Cl)c(Cl)c1)NCCC(CN1CCC(c2c[nH]c3ccccc23)CC1)c1ccccc1 (configuration not stated),570
23,CCCCc1cc(NCc2ccncc2)nc(Nc2ccc(C)cc2)n1,790
24,CC(C)Cc1nc2nc(N)nc(N)c2cc1C(C)C,230
